Assay results taken from patent US20070101461A1, “Method for Improving Phytoremediation Treatment of a Contaminated Medium” (priority 2001, published 2007).

Assays:
[1] = system: plant; settings: cited from earlier work
[2] = system: Pseudomonas sp. VM422; assay: zinc resistance phenotype, MIC on Tris minimal medium; type: cell-based; settings: strain VM422
[3] = system: Iris pseudocarus; assay: survival of plants in the presence of 2,4-D; type: in vivo; settings: 5 mg/l 2,4-D
[4] = system: yellow lupine; assay: plant growth with toluene during hydroponic cultivation; settings: non-inoculated plants
[5] = system: Lupinus luteus; assay: toxicity test: toluene on growth of Lupinus luteus; settings: hydroponic, 0-3000 mg per liter tested, all other exposed plants dead

Compound: ClC(Cl)=C(Cl)Cl [PER]
- Fate in plant (toxic, build up, or volatile) [1]: Volatile

Compound: [Zn] [zinc]
- MIC value for zinc [2]: 20 mM

Compound: O=C(O)COc1ccc(Cl)cc1Cl [2,4-D, 2,4-dichlorophenoxyacetic acid]
- Dead plants, Non-inoculated plants + 2,4-D [3]: 75%
- Healthy plants, Non-inoculated plants + 2,4-D [3]: 25%

Compound: ClC=C(Cl)Cl [TCE, tri-chloro-ethylene]
- Fate in plant (toxic, build up, or volatile) [1]: Volatile, Build-up

Compound: Cc1ccccc1 [toluene]
- toluene dose at which non-inoculated controls showed growth reduction [4]: 100 mg/L
- toluene concentration at which the exposed plant was not dead at the end of the third week [5]: 100 mg per liter
